According to the supplement of paper PMC6045584:
± gives the standard deviation of the averaged measurements.

How the values were obtained:
CABOZANTINIB = compound: COc1cc2nccc(Oc3ccc(NC(=O)C4(C(=O)Nc5ccc(F)cc5)CC4)cc3)c2cc1OC [CABOZANTINIB]; experiment: surviving fraction relative to DMSO-only wells; higher = less growth inhibition; settings: exposure time: 5 days
In short: (§1)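 In 384-well plates, 250–500 log-phase tumour cells per well were given 24 hours before five days of continuous exposure to inhibitors at 0.5, 1, 5, 10, 50, 100, 500 and 1000 nM. Surviving fraction is luminescence from CellTiter-Glo, normalised to the median of wells containing DMSO alone. Reading took place after 10 minutes at room temperature.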

[1] = compound: C[C@@H]1CN(CC(=O)Nc2ccc3c(c2)Cc2cccc(-c4cc(=O)cc(N5CCOCC5)o4)c2S3)C[C@H](C)O1; experiment: as above; settings: exposure time: 5 days
In short: as §1

Test System	surviving fraction (CABOZANTINIB; 0.5 nM)	surviving fraction (CABOZANTINIB; 1 nM)	surviving fraction (CABOZANTINIB; 5 nM)	surviving fraction (CABOZANTINIB; 10 nM)	surviving fraction (CABOZANTINIB; 50 nM)	surviving fraction (CABOZANTINIB; 100 nM)	surviving fraction (CABOZANTINIB; 500 nM)	surviving fraction (CABOZANTINIB; 1000 nM)	surviving fraction ([1]; 0.5 nM)	surviving fraction ([1]; 1 nM)	surviving fraction ([1]; 5 nM)	surviving fraction ([1]; 10 nM)	surviving fraction ([1]; 50 nM)	surviving fraction ([1]; 100 nM)	surviving fraction ([1]; 500 nM)	surviving fraction ([1]; 1000 nM)
SG27 HEADNECK	1.02 ± 0.036	1.06 ± 0.021	0.971 ± 0.054	0.996 ± 0.1	1.14 ± 0.079	1.03 ± 0.13	0.975 ± 0.14	0.9483 ± 0.007	1.02 ± 0.1	0.976 ± 0.047	1.13 ± 0.079	1.02 ± 0.15	0.95 ± 0.056	0.988 ± 0.11	1.01 ± 0.061	1.03 ± 0.1
SG28 HEADNECK	1.07 ± 0.047	1.12 ± 0.061	0.968 ± 0.099	0.959 ± 0.023	1 ± 0.06	1 ± 0.16	1.06 ± 0.058	1.19 ± 0.26	1.07 ± 0.081	1.11 ± 0.13	1.04 ± 0.093	0.986 ± 0.033	0.9 ± 0.054	0.915 ± 0.047	0.9 ± 0.1	0.87 ± 0.11
SG31 HEADNECK	1.1 ± 0.21	1.07 ± 0.2	0.981 ± 0.073	0.97 ± 0.14	1.07 ± 0.24	0.97 ± 0.07	1.1 ± 0.067	1.11 ± 0.082	0.946 ± 0.076	0.916 ± 0.1	1.06 ± 0.17	0.953 ± 0.07	0.971 ± 0.12	0.964 ± 0.09	1.08 ± 0.087	1.06 ± 0.098
SG32 HEADNECK	1.06 ± 0.18	1 ± 0.17	0.922 ± 0.1	1.04 ± 0.29	0.901 ± 0.1	0.961 ± 0.13	0.968 ± 0.1	0.711 ± 0.05	1.16 ± 0.16	1.07 ± 0.2	1.12 ± 0.18	1.62 ± 0.39	0.939 ± 0.091	1.05 ± 0.047	0.74 ± 0.11	0.681 ± 0.082
SG43 HEADNECK	0.887 ± 0.051	0.863 ± 0.15	0.883 ± 0.019	0.788 ± 0.11	0.759 ± 0.18	0.737 ± 0.2	0.757 ± 0.056	0.708 ± 0.072	0.871 ± 0.21	1.22 ± 0.069	1.03 ± 0.14	1.16 ± 0.14	1.37 ± 0.25	1.38 ± 0.36	1.31 ± 0.19	1.43 ± 0.061
SIHA CERVIX	0.857 ± 0.073	0.835 ± 0.051	0.979 ± 0.02	0.918 ± 0.017	0.988 ± 0.024	0.929 ± 0.038	0.737 ± 0.032	0.68 ± 0.033	1.04 ± 0.022	1.1 ± 0.082	1.09 ± 0.0035	1.06 ± 0.023	1.04 ± 0.062	1.08 ± 0.084	1.02 ± 0.11	0.931 ± 0.051
SJSA1 BONE	1.47 ± 0.13	1.63 ± 0.045	1.56 ± 0.07	1.75 ± 0.071	1.627 ± 0.0032	1.74 ± 0.13	1.65 ± 0.059	1.78 ± 0.089	0.993 ± 0.05	1.04 ± 0.03	1.05 ± 0.029	1.06 ± 0.061	1 ± 0.017	1.05 ± 0.026	0.9383 ± 0.0074	0.892 ± 0.034
SKBR3 BREAST	1.02 ± 0.1	0.954 ± 0.11	1.07 ± 0.083	0.973 ± 0.011	1.12 ± 0.11	1.06 ± 0.098	0.987 ± 0.077	0.973 ± 0.025	1.06 ± 0.013	0.979 ± 0.19	0.937 ± 0.22	0.939 ± 0.088	0.9 ± 0.16	1.05 ± 0.13	0.886 ± 0.07	0.61 ± 0.033
SNU475 LIVER	1 ± 0.033	0.972 ± 0.049	0.987 ± 0.031	0.991 ± 0.053	1 ± 0.012	0.985 ± 0.048	0.923 ± 0.023	0.876 ± 0.021	0.97 ± 0.022	1.02 ± 0.034	1.007 ± 0.0086	1.02 ± 0.027	0.876 ± 0.026	0.96133 ± 0.00058	0.863 ± 0.04	0.669 ± 0.036
SUM44 BREAST	1.21 ± 0.32	1.18 ± 0.3	1.24 ± 0.24	1.21 ± 0.23	1.36 ± 0.4	1.3 ± 0.35	1.2 ± 0.33	1.27 ± 0.39	0.936 ± 0.036	0.936 ± 0.034	0.977 ± 0.028	0.968 ± 0.023	0.911 ± 0.044	0.915 ± 0.067	0.898 ± 0.083	0.892 ± 0.031
SUM149 BREAST	1.03 ± 0.054	0.979 ± 0.19	0.912 ± 0.061	0.997 ± 0.021	0.987 ± 0.12	0.96 ± 0.084	0.91 ± 0.15	0.924 ± 0.091	0.874 ± 0.049	0.885 ± 0.1	0.96 ± 0.089	0.862 ± 0.035	1.01 ± 0.017	0.917 ± 0.029	0.819 ± 0.11	0.667 ± 0.024
SUM149.B1*.S BREAST	1.03 ± 0.07	1.02 ± 0.034	0.998 ± 0.046	1.04 ± 0.025	1.039 ± 0.0013	0.979 ± 0.037	0.992 ± 0.029	0.967 ± 0.021	1.07 ± 0.062	1.06 ± 0.064	1.05 ± 0.025	1.03 ± 0.027	1.07 ± 0.071	1.05 ± 0.016	1.08 ± 0.045	1.07 ± 0.074
SUM159 BREAST	1.02 ± 0.03	1.02 ± 0.028	1.01 ± 0.026	1.01 ± 0.036	1 ± 0.025	1.01 ± 0.034	0.986 ± 0.036	0.977 ± 0.025	1.08 ± 0.012	1.15 ± 0.11	1.11 ± 0.048	1.13 ± 0.11	1.11 ± 0.079	1.1 ± 0.023	1.13 ± 0.11	1.05 ± 0.029
SYO1 SYNOVIAL	0.92 ± 0.027	0.938 ± 0.042	0.929 ± 0.037	0.859 ± 0.02	0.807 ± 0.022	0.818 ± 0.044	0.721 ± 0.041	0.694 ± 0.031	0.997 ± 0.021	1 ± 0.029	0.987 ± 0.049	1.07 ± 0.019	0.993 ± 0.023	1.03 ± 0.018	0.894 ± 0.019	0.781 ± 0.011
T47D BREAST	0.969 ± 0.016	0.988 ± 0.028	1.02 ± 0.038	1.04 ± 0.075	1.059 ± 0.0083	1.07 ± 0.021	1.07 ± 0.034	1.03 ± 0.022	1.02 ± 0.018	1.01 ± 0.022	1.03 ± 0.013	0.9914 ± 0.0016	1.06 ± 0.027	1.049 ± 0.0087	1.047 ± 0.0069	0.945 ± 0.051
U2OS BONE	1.015 ± 0.0081	1.02 ± 0.028	1.03 ± 0.022	1.003 ± 0.0091	1.03 ± 0.046	1.02 ± 0.015	0.932 ± 0.018	0.914 ± 0.02	1.06 ± 0.052	1.09 ± 0.057	1.08 ± 0.029	1.08 ± 0.025	1.1 ± 0.058	1.09 ± 0.061	1.03 ± 0.048	1.02 ± 0.05
VCAP PROSTATE	0.921 ± 0.16	1.01 ± 0.046	1.05 ± 0.037	0.996 ± 0.07	1.06 ± 0.043	1.026 ± 0.004	0.992 ± 0.065	0.871 ± 0.056	1.01 ± 0.035	1.08 ± 0.066	1.11 ± 0.14	1.18 ± 0.15	1.19 ± 0.094	1.14 ± 0.11	0.922 ± 0.057	0.967 ± 0.079
VP229 BREAST	1.08 ± 0.1	1.04 ± 0.14	1.04 ± 0.15	0.952 ± 0.18	1.15 ± 0.2	0.998 ± 0.12	1.09 ± 0.088	0.966 ± 0.061	1.03 ± 0.15	1.07 ± 0.05	1.09 ± 0.14	1.06 ± 0.07	0.9067 ± 0.0046	0.916 ± 0.14	1.11 ± 0.062	0.897 ± 0.075
YAMATO SYNOVIAL	1.19 ± 0.048	1.16 ± 0.076	1.11 ± 0.04	1.01 ± 0.028	0.826 ± 0.044	0.678 ± 0.018	0.374 ± 0.0056	0.373 ± 0.02	1.41 ± 0.1	1.44 ± 0.13	1.38 ± 0.1	1.46 ± 0.03	0.925 ± 0.031	0.965 ± 0.046	0.884 ± 0.14	0.855 ± 0.045
ZR751 BREAST	0.87 ± 0.067	1.02 ± 0.013	1.05 ± 0.083	0.995 ± 0.032	1.04 ± 0.12	1.03 ± 0.086	1.07 ± 0.081	1.03 ± 0.087	1.01 ± 0.1	1.08 ± 0.19	1.02 ± 0.21	0.959 ± 0.13	0.951 ± 0.035	0.956 ± 0.076	1.06 ± 0.24	0.977 ± 0.071
